Test results taken from ChEMBL document CHEMBL2176890, “2-(3-fluoro-4-methylsulfonylaminophenyl)propanamides as potent transient receptor potential vanilloid 1 (TRPV1) antagonists: structure-activity relationships of 2-amino derivatives in the N-(6-trifluoromethylpyridin-3-ylmethyl) C-region” (J Med Chem, 2012).
pIC50, pKi: −log10 of the molar value. Calls of active or inactive are those of the source. No cut-off for these calls is given here.

How the values were obtained:
[1] = molecular target: T1, Transient receptor potential cation channel subfamily V member 1 (Homo sapiens, UniProt Q8NER1); assay: Antagonist activity at human TRPV1 expressed in CHOK1 cells assessed as inhibition of capsaicin-induced activity by FLIPR assay; type: functional, cell-based, CHO-K1; settings: for Ki: cho-k1; for pKi: read-out: Ki
[2] = molecular target: T1, Transient receptor potential cation channel subfamily V member 1; assay: Antagonist activity at human TRPV1 expressed in CHOK1 cells assessed as inhibition of pH-induced activity by FLIPR assay; type: functional, cell-based, CHO-K1; settings: for IC50: cho-k1; for pIC50: read-out: IC50
Mus musculus [3] = assay: Acute toxicity in TRPV1 knockout mouse assessed as hyperthermia at 1 mg/kg, po at 45 to 60 mins; settings: in vivo
[4] = molecular target: T1, Transient receptor potential cation channel subfamily V member 1; assay: Antagonist activity at human TRPV1 expressed in CHOK1 cells assessed as inhibition of heat-induced activity after 5 mins by FLIPR assay; type: functional, cell-based, CHO-K1
Mus musculus [5] = assay: Acute toxicity in C57BL/6J mouse assessed as hyperthermia at 1 mg/kg, po at 45 to 60 mins; settings: in vivo
Rattus norvegicus [6] = assay: Analgesic activity in CCI-induced Sprague-Dawley rat neuropathic pain model assessed as reduction in paw withdrawal at 3.16 mg/kg, po after 45 mins; type: functional
Rattus norvegicus [7] = assay: Toxicity in po dosed CCI-induced Sprague-Dawley rat neuropathic pain model assessed as sedation; type: organism-based; settings: in vivo
Rattus norvegicus [8] = assay: Analgesic activity in CCI-induced Sprague-Dawley rat neuropathic pain model assessed as reduction in paw withdrawal measured 45 mins after po administration; type: functional
[9] = molecular target: T1, Transient receptor potential cation channel subfamily V member 1; assay: Antagonist activity at human TRPV1 expressed in CHOK1 cells assessed as inhibition of N-acetyldopamine-induced activity after 5 mins by FLIPR assay; type: functional, cell-based, CHO-K1
Rattus norvegicus [10] = assay: Toxicity in po dosed CCI-induced Sprague-Dawley rat neuropathic pain model assessed as decreased locomotion; type: organism-based; settings: in vivo
Mus musculus [11] = assay: Inhibition of capsaicin-induced hypothermia in NMRI mouse at 0.3 mg/kg, po administered 15 mins prior challenge; type: functional, organism-based; design: dose 0.3 mg/kg
Rattus norvegicus [12] = assay: Analgesic activity in CCI-induced Sprague-Dawley rat neuropathic pain model assessed as reduction in paw withdrawal measured 30 mins after po administration; type: functional, organism-based

T1 sequence (Q8NER1 whole entry): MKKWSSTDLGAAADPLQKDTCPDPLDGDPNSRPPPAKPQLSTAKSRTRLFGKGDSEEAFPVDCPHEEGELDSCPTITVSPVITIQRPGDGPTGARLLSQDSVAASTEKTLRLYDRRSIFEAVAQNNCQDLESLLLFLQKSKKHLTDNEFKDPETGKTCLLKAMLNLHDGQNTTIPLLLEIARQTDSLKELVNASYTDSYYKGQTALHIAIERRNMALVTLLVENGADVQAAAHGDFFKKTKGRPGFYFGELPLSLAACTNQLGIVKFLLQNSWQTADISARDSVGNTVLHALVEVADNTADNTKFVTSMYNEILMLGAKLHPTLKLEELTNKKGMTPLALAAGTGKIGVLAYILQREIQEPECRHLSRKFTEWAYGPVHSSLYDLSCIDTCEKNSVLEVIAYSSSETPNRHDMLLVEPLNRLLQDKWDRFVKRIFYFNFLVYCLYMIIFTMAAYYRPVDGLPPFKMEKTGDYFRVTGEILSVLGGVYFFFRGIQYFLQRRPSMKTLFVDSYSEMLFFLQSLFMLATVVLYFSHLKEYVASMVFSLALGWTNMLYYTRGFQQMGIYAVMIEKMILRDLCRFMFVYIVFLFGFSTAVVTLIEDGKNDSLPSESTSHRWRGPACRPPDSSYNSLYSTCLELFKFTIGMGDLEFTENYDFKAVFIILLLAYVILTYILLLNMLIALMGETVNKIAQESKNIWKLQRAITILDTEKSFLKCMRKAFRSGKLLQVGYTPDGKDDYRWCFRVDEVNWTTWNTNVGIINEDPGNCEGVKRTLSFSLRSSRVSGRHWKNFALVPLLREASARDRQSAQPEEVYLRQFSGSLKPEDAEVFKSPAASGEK

pKi [1] | pIC50 [2] | Structure (SMILES) | further results
– | – | CC(C(=O)NCc1ccc(C(F)(F)F)nc1NCc1cccnc1)c1ccc(NS(C)(=O)=O)c(F)c1 (racemic) | Ki [1]: Not Active; IC50 [2]: Not Active
7.59 | – | CC(C)(C)c1ccc(CNC(=S)NCc2ccc(NS(C)(=O)=O)c(F)c2)cc1 | IC50 [2]: Not Active
– | – | C[C@H](C(=O)NCc1ccc(C(F)(F)F)nc1N1CCC[C@H]1CO)c1ccc(NS(C)(=O)=O)c(F)c1 | IC50 [2]: Not Active
– | – | CC(C(=O)NCc1ccc(C(F)(F)F)nc1)c1ccc(NS(C)(=O)=O)c(F)c1 (racemic) | IC50 [2]: Not Active
8.92 | 6.94 | O=C(/C=C/c1ccc(C(F)(F)F)nc1N1CCOCC1)Nc1ccc2cccnc2c1 | –
9.70 | 7.77 | Cc1ccc(CC2CCN(c3nc(C(F)(F)F)ccc3CNC(=O)C(C)c3ccc(NS(C)(=O)=O)c(F)c3)CC2)cc1 (racemic) | –
7.57 | 5.95 | CC1CCC(Nc2nc(C(F)(F)F)ccc2CNC(=O)C(C)c2ccc(NS(C)(=O)=O)c(F)c2)CC1 (racemic) | –
9.10 | 7.60 | CC(C(=O)NCc1ccc(C(F)(F)F)nc1N1CCCCCC1)c1ccc(NS(C)(=O)=O)c(F)c1 (racemic) | –
8.15 | 6.13 | C[C@H](C(=O)NCc1ccc(C(F)(F)F)nc1N1CC[C@H](NC(=O)OC(C)(C)C)C1)c1ccc(NS(C)(=O)=O)c(F)c1 | –
9.52 | – | CC1CCCN1c1nc(C(F)(F)F)ccc1CNC(=O)[C@@H](C)c1ccc(NS(C)(=O)=O)c(F)c1 (stereo not given in full) | –
– | 7.33 | C[C@H](C(=O)NCc1ccc(C(F)(F)F)nc1N1CCCCC1)c1ccc(NS(C)(=O)=O)c(F)c1 | –
8.59 | 6.68 | C[C@H](C(=O)NCc1ccc(C(F)(F)F)nc1N1CCC[C@H]1C(=O)OC(C)(C)C)c1ccc(NS(C)(=O)=O)c(F)c1 | –
– | – | CC(C(=O)NCc1ccc(C(F)(F)F)nc1N1CCC(O)CC1)c1ccc(NS(C)(=O)=O)c(F)c1 (racemic) | Ki [1]: Not Active; IC50 [2]: Not Active
9.40 | 7.62 | CC(C(=O)NCc1ccc(C(F)(F)F)nc1N1CCC(Cc2cc(F)cc(F)c2)CC1)c1ccc(NS(C)(=O)=O)c(F)c1 (racemic) | –
9.70 | 7.52 | CC(C(=O)NCc1ccc(C(F)(F)F)nc1N1CCC(Cc2ccc(F)c(F)c2)CC1)c1ccc(NS(C)(=O)=O)c(F)c1 (racemic) | –
8.36 | – | O=C(/C=C/c1ccc(C(F)(F)F)nc1N1CCCCC1)Nc1ccc2cccnc2c1 | IC50 [2]: Not Active
8.85 | 7.30 | C[C@H](C(=O)NCc1ccc(C(F)(F)F)nc1N1CC[C@@H](OCc2ccccc2)C1)c1ccc(NS(C)(=O)=O)c(F)c1 | –
8.41 | 6.00 | CC(C(=O)NCc1ccc(C(F)(F)F)nc1N1CCC(C(=O)c2ccc(F)cc2)CC1)c1ccc(NS(C)(=O)=O)c(F)c1 (racemic) | –
7.96 | 6.12 | C[C@H](C(=O)NCc1ccc(C(F)(F)F)nc1N1CC[C@@H](NC(=O)OC(C)(C)C)C1)c1ccc(NS(C)(=O)=O)c(F)c1 | –
7.00 | – | C[C@H](C(=O)NCc1ccc(C(F)(F)F)nc1N1CC[C@@H](N(C)C)C1)c1ccc(NS(C)(=O)=O)c(F)c1 | –
– | 6.93 | CC(C(=O)NCc1ccc(C(F)(F)F)nc1N1CCN(c2ncccc2Cl)CC1)c1ccc(NS(C)(=O)=O)c(F)c1 (racemic) | –
– | – | C[C@H](C(=O)NCc1ccc(C(F)(F)F)nc1N1CCC[C@H]1C(=O)N(C)C)c1ccc(NS(C)(=O)=O)c(F)c1 | IC50 [2]: Not Active
6.99 | – | C[C@H](C(=O)NCc1ccc(C(F)(F)F)nc1N1CC[C@H](N(C)C)C1)c1ccc(NS(C)(=O)=O)c(F)c1 | –
8.68 | 6.37 | CC(C(=O)NCc1ccc(C(F)(F)F)nc1N1CCC(CN(C)C)CC1)c1ccc(NS(C)(=O)=O)c(F)c1 (racemic) | –
7.70 | 5.92 | C[C@H](C(=O)NCc1ccc(C(C)(C)C)cc1)c1ccc(NS(C)(=O)=O)c(F)c1 | pIC50 [4]: 6.76; Activity (Rattus norvegicus [12]): Active; Activity (Rattus norvegicus [7]): Non-toxic; pKi [9]: 8.18; Activity (Rattus norvegicus [10]): Non-toxic
9.37 | – | CC(C(=O)NCc1ccc(C(F)(F)F)nc1N1CCCCC1)c1ccc(NS(C)(=O)=O)c(F)c1 (racemic) | –
8.64 | 6.93 | CC(C(=O)NCc1ccc(C(F)(F)F)nc1N1CCN(c2ccc(C(F)(F)F)cc2)CC1)c1ccc(NS(C)(=O)=O)c(F)c1 (racemic) | –

Structure (SMILES) | pKi [1] | pIC50 [2] | further results
CC1CCN(c2nc(C(F)(F)F)ccc2CNC(=O)[C@H](C)c2ccc(NS(C)(=O)=O)c(F)c2)CC1 | 8.01 | 6.60 | –
CC1CCN(c2nc(C(F)(F)F)ccc2CNC(=O)[C@@H](C)c2ccc(NS(C)(=O)=O)c(F)c2)CC1 | 9.70 | 8.20 | Activity (Mus musculus [3]): Non-toxic; pIC50 [4]: 9.10; Activity (Mus musculus [5]): Toxic; Emax at 3.16 mg/kg (Rattus norvegicus [6]): 60%; Activity (Rattus norvegicus [7]): Non-toxic; Activity (Rattus norvegicus [8]): Dose-dependent effect; ED50 (Rattus norvegicus [8]): 0.9 mg/kg; pKi [9]: 11.00; Activity (Rattus norvegicus [10]): Non-toxic; Activity (Mus musculus [11]): Active
CC1CCN(c2nc(C(F)(F)F)ccc2CNC(=O)C(C)c2ccc(NS(C)(=O)=O)c(F)c2)CC1 (racemic) | – | 8.08 | –
